In patent publication US11000033B2, “Ketone or oxime compound, and herbicide” (NISSAN CHEMICAL CORPORATION, priority 2014, dated 2021):

Legend:
Format in all cases: in vivo
Digitaria ciliaris = assay: Test Example 4: herbicidal effect by soil treatment (symbol F); settings: application herbicide amount 320 g/ha
Summary of the method: (§1)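 Seeds were sown in sterilized diluvial soil, covered with about 1.5 cm of soil, and the soil surface was sprayed with a water-diluted emulsion of the compound at a predetermined rate. Plants grew in a greenhouse at 25° C. to 30° C.; effects were scored visually 3 weeks after application.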

Veronica persica [1] = assay: Test Example 5: herbicidal effect by foliage application, plastic box (symbol R); settings: 320 g/ha, 3 weeks after application
Summary of the method: (§2)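 Post-emergence spray; diluvial soil (sterilized), ~1.5 cm seed cover; greenhouse 25–30° C; 14-day-old plants; water-diluted emulsion at predetermined dose; visual score at 3 wk post-treatment.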

transplanted rice plant = assay: Test Example 1: effect on crop, application before weed generation in submerged conditions (symbol a); settings: application herbicide amount 320 g/ha
Summary of the method: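 Rice at 2.5 leaf stage transplanted into submerged soil (4 cm depth) sown with three weed species; herbicide applied before weed emergence.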

Veronica persica [2] = assay: Test Example 4: herbicidal effect by soil treatment (symbol R); settings: application herbicide amount 320 g/ha
Summary of the method: as §1

Avena fatua [3] = assay: Test Example 4: herbicidal effect by soil treatment (symbol I); settings: application herbicide amount 320 g/ha
Summary of the method: as §1

Chenopodium album [4] = assay: Test Example 5: herbicidal effect by foliage application, plastic box (symbol O); settings: 320 g/ha, 3 weeks after application
Summary of the method: as §2

[5] = tested on: Echinochloa oryzacola Vasing.; assay: Test Example 2: herbicidal activity, application during weed generation in submerged conditions (symbol A); settings: Table 23; application herbicide amount 320 g/ha; grade 0-5 by criteria of Test Example 1
Summary of the method: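 Treatment timing was the one- to two-leaf stage, with diluted emulsifiable compound dropped onto the paddy water (depth 4 cm) over alluvial soil. All three species grew from a mixed sowing in a 25° C. to 30° C. greenhouse. Injury was judged by eye 3 weeks on.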

corn = assay: Test Example 5: effect on crop by foliage application, plastic box (symbol c); settings: 320 g/ha, 3 weeks after application
Summary of the method: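 Plants were raised from seed in a greenhouse (25° C. to 30° C.) after sowing in a plastic box of sterilized diluvial soil.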

Lolium multiflorum Lam. = assay: Test Example 4: herbicidal effect by soil treatment (symbol K); settings: application herbicide amount 320 g/ha
Summary of the method: as §1

Avena fatua [6] = assay: Test Example 5: herbicidal effect by foliage application, plastic box (symbol I); settings: 320 g/ha, 3 weeks after application
Summary of the method: as §2

[7] = tested on: Echinochloa crus-galli var. crus-galli; assay: Test Example 4: herbicidal effect by soil treatment (symbol H); settings: application herbicide amount 320 g/ha
Summary of the method: as §1

Chenopodium album [8] = assay: Test Example 4: herbicidal effect by soil treatment (symbol O); settings: application herbicide amount 320 g/ha
Summary of the method: as §1

Leptochloa chinensis = assay: Test Example 3: herbicidal effect by foliage application, Wagner pot (symbol D); settings: application herbicide amount 320 g/ha
Summary of the method: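 The compound, formulated as an emulsion and diluted with water to a predetermined rate, is applied uniformly to leaves of two-week-old seedlings growing in submerged alluvial soil at 25–30 °C. Rice is included. Each plant is assessed 3 weeks later using defined criteria.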

Setaria viridis = assay: Test Example 5: herbicidal effect by foliage application, plastic box (symbol G); settings: 320 g/ha, 3 weeks after application
Summary of the method: as §2

Row | Compound | Herbicidal effect grade, F: Digitaria ciliaris (Digitaria ciliaris) | R: Veronica persica, herbicidal effect (criteria of Test Example 1) (Veronica persica [1]) | Effect grade on crop, a: transplanted rice plant (transplanted rice plant) | Herbicidal effect grade, R: Veronica persica (Veronica persica [2]) | Herbicidal effect grade, I: Avena fatua (Avena fatua [3]) | O: Chenopodium album, herbicidal effect (criteria of Test Example 1) (Chenopodium album [4]) | Herbicidal effect grade, A: Echinochloa oryzacola Vasing. [5] | c: corn, effect on crop (criteria of Test Example 1) (corn) | Herbicidal effect grade, K: Lolium multiflorum Lam. (Lolium multiflorum Lam.) | I: Avena fatua, herbicidal effect (criteria of Test Example 1) (Avena fatua [6]) | Herbicidal effect grade, H: Echinochloa crus-galli var. crus-galli [7] | Herbicidal effect grade, O: Chenopodium album (Chenopodium album [8]) | herbicidal effect on D (Leptochloa chinensis), grade 0-5 (Leptochloa chinensis) | G: Setaria viridis, herbicidal effect (criteria of Test Example 1) (Setaria viridis) | F: Digitaria ciliaris, herbicidal effect grade (Digitaria ciliaris) | R: Veronica persica, herbicidal effect grade (Veronica persica [2]) | I: Avena fatua, herbicidal effect grade (Avena fatua [3]) | K: Lolium multiflorum Lam., herbicidal effect grade (Lolium multiflorum Lam.) | H: Echinochloa crus-galli var. crus-galli, herbicidal effect grade [7] | O: Chenopodium album, herbicidal effect grade (Chenopodium album [8])
1 | CON=C(C)CC1CC(O)=C(c2c(C)cc(-c3ccccc3)cc2OC)C1=O (stereo not shown) [6-099] | 5 (Herbicidal ratio of 90% or more (almost completely withered)) | 5 (Herbicidal ratio of 90% or more (almost completely withered)) | 5 (Herbicidal ratio of 90% or more (almost completely withered)) | 4 (Herbicidal ratio of 70% or higher and lower than 90%) | 5 (Herbicidal ratio of 90% or more (almost completely withered)) | 5 (Herbicidal ratio of 90% or more (almost completely withered)) | 5 (Herbicidal ratio of 90% or more (almost completely withered)) | 5 (Herbicidal ratio of 90% or more (almost completely withered)) | 5 (Herbicidal ratio of 90% or more (almost completely withered)) | 5 (Herbicidal ratio of 90% or more (almost completely withered)) | 5 (Herbicidal ratio of 90% or more (almost completely withered)) | 4 (Herbicidal ratio of 70% or higher and lower than 90%) | 5 (Herbicidal ratio of 90% or more (almost completely withered)) | 5 (Herbicidal ratio of 90% or more (almost completely withered)) | – | – | – | – | – | –
2 | CON=C(C)CC1CC(OC(=O)COc2ccccc2)=C(c2c(C)cc(-c3ccc(Cl)cc3)cc2OC)C1=O (stereo not shown) [6-079] | – | 3 (Herbicidal ratio of 40% or higher and lower than 70%) | 5 (Herbicidal ratio of 90% or more (almost completely withered)) | – | – | 3 (Herbicidal ratio of 40% or higher and lower than 70%) | 3 (Herbicidal ratio of 40% or higher and lower than 70%) | 5 (Herbicidal ratio of 90% or more (almost completely withered)) | – | 5 (Herbicidal ratio of 90% or more (almost completely withered)) | – | – | 5 (Herbicidal ratio of 90% or more (almost completely withered)) | 5 (Herbicidal ratio of 90% or more (almost completely withered)) | 5 (Herbicidal ratio of 90% or more (almost completely withered)) | 3 (Herbicidal ratio of 40% or higher and lower than 70%) | 0 (Herbicidal ratio of 5% or lower (almost no effect)) | 5 (Herbicidal ratio of 90% or more (almost completely withered)) | 5 (Herbicidal ratio of 90% or more (almost completely withered)) | 0 (Herbicidal ratio of 5% or lower (almost no effect))
3 | CON=C(C)CC1CC(O)=C(c2c(C)cc(C(C)=NOC)cc2C)C1=O (stereo not shown) [6-065] | – | 3 (Herbicidal ratio of 40% or higher and lower than 70%) | 4 (Herbicidal ratio of 70% or higher and lower than 90%) | – | – | 1 (Herbicidal ratio of 5% or higher and lower than 20%) | 5 (Herbicidal ratio of 90% or more (almost completely withered)) | 5 (Herbicidal ratio of 90% or more (almost completely withered)) | – | 5 (Herbicidal ratio of 90% or more (almost completely withered)) | – | – | 5 (Herbicidal ratio of 90% or more (almost completely withered)) | 5 (Herbicidal ratio of 90% or more (almost completely withered)) | 5 (Herbicidal ratio of 90% or more (almost completely withered)) | 3 (Herbicidal ratio of 40% or higher and lower than 70%) | 4 (Herbicidal ratio of 70% or higher and lower than 90%) | 5 (Herbicidal ratio of 90% or more (almost completely withered)) | 5 (Herbicidal ratio of 90% or more (almost completely withered)) | 3 (Herbicidal ratio of 40% or higher and lower than 70%)
4 | CON=C(C)CC1CC(O)=C(c2c(C)cccc2C)C1=O (stereo not shown) [6-112] | 5 (Herbicidal ratio of 90% or more (almost completely withered)) | 1 (Herbicidal ratio of 5% or higher and lower than 20%) | 4 (Herbicidal ratio of 70% or higher and lower than 90%) | 0 (Herbicidal ratio of 5% or lower (almost no effect)) | 1 (Herbicidal ratio of 5% or higher and lower than 20%) | 0 (Herbicidal ratio of 5% or lower (almost no effect)) | 3 (Herbicidal ratio of 40% or higher and lower than 70%) | 5 (Herbicidal ratio of 90% or more (almost completely withered)) | 5 (Herbicidal ratio of 90% or more (almost completely withered)) | 5 (Herbicidal ratio of 90% or more (almost completely withered)) | 5 (Herbicidal ratio of 90% or more (almost completely withered)) | 0 (Herbicidal ratio of 5% or lower (almost no effect)) | 5 (Herbicidal ratio of 90% or more (almost completely withered)) | 5 (Herbicidal ratio of 90% or more (almost completely withered)) | – | – | – | – | – | –
5 | CON=C(C)CC1CC(O)=C(c2c(OC)cc(C)cc2OC)C1=O (stereo not shown) [6-103] | 5 (Herbicidal ratio of 90% or more (almost completely withered)) | 2 (Herbicidal ratio of 20% or higher and lower than 40%) | 5 (Herbicidal ratio of 90% or more (almost completely withered)) | 0 (Herbicidal ratio of 5% or lower (almost no effect)) | 5 (Herbicidal ratio of 90% or more (almost completely withered)) | 0 (Herbicidal ratio of 5% or lower (almost no effect)) | 5 (Herbicidal ratio of 90% or more (almost completely withered)) | 5 (Herbicidal ratio of 90% or more (almost completely withered)) | 5 (Herbicidal ratio of 90% or more (almost completely withered)) | 5 (Herbicidal ratio of 90% or more (almost completely withered)) | 5 (Herbicidal ratio of 90% or more (almost completely withered)) | 0 (Herbicidal ratio of 5% or lower (almost no effect)) | 5 (Herbicidal ratio of 90% or more (almost completely withered)) | 5 (Herbicidal ratio of 90% or more (almost completely withered)) | – | – | – | – | – | –
